Measured values taken from PubChem BioAssay (NCI).
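Dose response: 5 concentrations. Exposure: 48 h. Format: 96-well plates. Endpoint: linear interpolation; highest concentration if not reached. GI50 marks 50% less growth. TGI marks complete inhibition of growth.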

Legend:
Assay in all cases: NCI-60 cell line screen, 48 h
[1] = tested on: LOX IMVI melanoma
[2] = tested on: HL-60(TB) leukemia
[3] = tested on: SNB-75 CNS
[4] = tested on: 786-0 renal
[5] = tested on: CCRF-CEM leukemia
[6] = tested on: SK-OV-3 ovarian
[7] = tested on: OVCAR-3 ovarian
[8] = tested on: SNB-19 CNS
[9] = tested on: MDA-MB-231 breast
[10] = tested on: COLO 205 colon

Compound	GI50 [1]	TGI [1]	GI50 [2]	TGI [2]	GI50 [3]	TGI [3]	GI50 [4]	TGI [4]	GI50 [5]	TGI [5]	GI50 [6]	TGI [6]	GI50 [7]	TGI [7]	GI50 [8]	TGI [8]	GI50 [9]	TGI [9]	GI50 [10]	TGI [10]
COc1ccc(-c2cn(-c3cc(OC)c(OC)c(OC)c3)c(SCc3ccccc3)n2)cc1OC	> 100 µM	> 100 µM	> 100 µM	> 100 µM	82.3 µM	> 100 µM	> 100 µM	> 100 µM	> 100 µM	> 100 µM	> 100 µM	> 100 µM	> 100 µM	> 100 µM	> 100 µM	> 100 µM	> 100 µM	> 100 µM	> 100 µM	> 100 µM
C=C1C(=O)O[C@H]2[C@H]1CC/C(COC(=O)NCc1cn(C)c3ccccc13)=C\CC[C@@]1(C)O[C@@H]21	0.594 µM	1.99 µM	0.49 µM	2.86 µM	4.16 µM	17.6 µM	0.685 µM	2.04 µM	0.335 µM	2.26 µM	–	–	1.03 µM	2.3 µM	2.84 µM	13 µM	1.68 µM	3.54 µM	–	–
O=C(CCCCCCCCC(=O)N/N=C\c1ccccc1O)N/N=C\c1ccccc1O	0.273 µM	6.07 µM	0.203 µM	0.687 µM	1.82 µM	15.3 µM	0.334 µM	1.99 µM	0.228 µM	17.4 µM	0.899 µM	15.6 µM	0.343 µM	> 51.2 µM	0.763 µM	> 59.4 µM	0.225 µM	32.2 µM	2.63 µM	> 35.2 µM
O=[N+]([O-])O.[Cu+2].[NH-]CC[NH-].[NH-]CC[NH-]	> 10 µM	> 10 µM	> 10 µM	> 10 µM	> 10 µM	> 10 µM	> 10 µM	> 10 µM	> 10 µM	> 10 µM	> 10 µM	> 10 µM	> 10 µM	> 10 µM	> 10 µM	> 10 µM	> 10 µM	> 10 µM	> 10 µM	> 10 µM
CN(C)CCN1C(=O)c2ccccc2N(C)c2ccccc21	> 100 µM	> 100 µM	> 100 µM	> 100 µM	> 100 µM	> 100 µM	> 100 µM	> 100 µM	> 100 µM	> 100 µM	> 100 µM	> 100 µM	> 100 µM	> 100 µM	> 100 µM	> 100 µM	> 100 µM	> 100 µM	> 100 µM	> 100 µM
O=C1Nc2ccccc2/C1=C/C(=O)c1coc2c1C(=O)c1ccccc1C2=O	> 100 µM	> 100 µM	> 100 µM	> 100 µM	18.9 µM	> 100 µM	> 100 µM	> 100 µM	> 100 µM	> 100 µM	> 100 µM	> 100 µM	> 100 µM	> 100 µM	> 100 µM	> 100 µM	> 100 µM	> 100 µM	> 100 µM	> 100 µM
N#CC(NC12CC3CC(CC(C3)C1)C2)c1ccc2c(c1)OCO2 (stereo unspecified)	–	> 100 µM	–	> 100 µM	–	> 100 µM	–	> 100 µM	–	> 100 µM	–	> 100 µM	–	> 100 µM	–	> 100 µM	–	> 100 µM	–	> 100 µM
